Reference: PubChem BioAssay (NCI)
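How tested: cells in 96-well plates exposed to compound for 48 hours at five concentrations. The concentration for 50% growth inhibition is given as GI50. TGI denotes the concentration required for complete inhibition of growth.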

Experiments:
Test in all cases: NCI anticancer screen, dose series, 48 h
[1] = test system: A498 renal
[2] = test system: SK-MEL-2 melanoma
[3] = test system: MOLT-4 leukemia
[4] = test system: HOP-62 NSCLC
[5] = test system: 786-0 renal
[6] = test system: SK-MEL-28 melanoma
[7] = test system: K-562 leukemia
[8] = test system: UO-31 renal
[9] = test system: SK-OV-3 ovarian
[10] = test system: SNB-75 CNS

| Structure (SMILES) | TGI [1] [µM] | TGI [2] [µM] | TGI [3] [µM] | TGI [4] [µM] | TGI [5] [µM] | TGI [6] [µM] | TGI [7] [µM] | TGI [8] [µM] | TGI [9] [µM] | TGI [10] [µM] | GI50 [1] [µM] | GI50 [2] [µM] | GI50 [3] [µM] | GI50 [4] [µM] | GI50 [5] [µM] | GI50 [6] [µM] | GI50 [7] [µM] | GI50 [8] [µM] | GI50 [9] [µM] | GI50 [10] [µM] |
| --- | --- | --- | --- | --- | --- | --- | --- | --- | --- | --- | --- | --- | --- | --- | --- | --- | --- | --- | --- | --- |
| O=C1C(=Cc2ccc(F)cc2)C(=O)c2ccccc21 | > 100 | > 100 | > 100 | > 100 | > 100 | > 100 | > 100 | > 100 | > 100 | 95.4 |  |  |  |  |  |  |  |  |  |  |
| C/C(=N\Nc1n[nH]c(=S)n1N)c1c(O)cc(C)oc1=O | > 100 | > 100 | > 100 | > 100 | > 100 | > 100 | > 100 | > 100 | > 100 | > 100 |  |  |  |  |  |  |  |  |  |  |
| Cn1cccc1-c1cc(-c2ccccc2)nc(N)c1C#N | > 100 | > 100 | > 100 | > 100 | > 100 | > 100 | > 100 | > 100 | > 100 | > 87.9 | 36.8 | > 100 | > 70 | 84.6 | > 96.4 | > 100 | > 100 | > 100 | > 100 | > 43 |
| CC1=C(SCCC(=O)OC(C[Se]C2=C(C)C(=O)c3ccccc3C2=O)C(=O)NC(C)(C)C)C(=O)c2ccccc2C1=O (stereo not given) | 2.97 | 3.65 | 1.31 | 1.68 | 2.91 | 3.16 | 2.59 | 2.15 | 2.74 | 2.76 | 1.55 | 2.04 | 0.274 | 0.32 | 1.57 | 1.78 | 0.774 | 0.68 | 1.43 | 1.45 |
| CC1(C2CCC3(C)C(C2)C3Sc2ccccc2)OCCO1 (stereo not given) | 36.4 | 34.3 | 38.4 | 45.8 | 33.3 | 63.6 | 43.7 | 31.4 | 88.6 | > 100 |  |  |  |  |  |  |  |  |  |  |
| NC(=O)c1nc(-c2ccc(Cl)c(Cl)c2)nc2ccccc12 | > 100 | > 100 | > 100 | > 100 | > 100 | > 40.9 | > 31.6 | > 100 | > 27.3 | 11.7 |  |  |  |  |  |  |  |  |  |  |
| CCOc1ccccc1N=Cc1c2ccccc2cc2ccccc12 | > 72.4 | 53.4 | 53.3 | > 84.3 | 41.1 | > 73.5 | > 67.7 | 43.6 | 68.6 | 47.7 |  |  |  |  |  |  |  |  |  |  |
| COc1ccc2c(c1)[nH]c1c3ccc(OC)cc3oc(=O)c21 | > 100 | > 100 | > 100 | > 100 | > 100 | > 100 | > 100 | > 100 | > 100 | > 100 |  |  |  |  |  |  |  |  |  |  |
| NC1=C(O)C(=O)C(c2c[nH]c3ccc(OCc4ccccc4)cc23)O1 (stereo not given) | > 100 | > 100 | > 100 | > 100 | > 100 | > 100 | > 100 | > 100 | > 100 | > 91.3 |  |  |  |  |  |  |  |  |  |  |
| CCOc1ccccc1NC(=O)C1=C(C)NC(C)=C(C(=O)Nc2ccccc2OCC)C1c1cccc([N+](=O)[O-])c1 | > 100 | > 100 | > 100 | > 100 | > 100 | > 100 | > 100 | > 100 | > 100 | 89.3 |  |  |  |  |  |  |  |  |  |  |
| CCCCCCCCc1cc(O)ccc1O | 36 | 30.8 | 72.8 | 60.6 | 34.5 | 33.4 | 67.5 | 28.3 | > 100 | 47.3 | 15.3 | 13 | 17.3 | 25.5 | 17.5 | 17.4 | 14.9 | 15 | 34.8 | 13.3 |
| CCOC(=O)C(=O)Nc1nc2ccc(C)cc2s1 | > 100 | > 100 | > 100 | > 100 | > 100 | > 100 | > 100 | > 100 | > 100 | > 100 |  |  |  |  |  |  |  |  |  |  |
| C1CC[N-]CC1.CC(=N\O)/C(C)=N/O.CC(=N\O)/C(C)=N/O.C[CH-]C(C)O.[Co+2] | 73.9 | 34.9 | 42.2 | 85.9 | > 100 | 61.2 | 45.8 | > 100 | > 100 | 71.4 | 23.9 | 17.9 | 17.4 | 21.7 | 33.9 | 29.2 | 19.3 | 42.9 | 89 | 19.5 |
| CNC(=O)c1cc(-c2ccc(F)cc2)cc(-c2ccc(S(=O)(=O)N3CCCC3)cc2)c1N | > 25 | > 25 | > 25 | > 25 | > 25 | > 25 | > 25 | > 25 | > 25 | > 25 | 5.25 | > 25 | 15.5 | > 25 | 24.4 | > 25 | 20.4 | 11.3 | > 25 | 12.7 |
| CCOC(=O)N(O)c1ccc(/C=C/c2ccccc2)cc1 | 0.291 | 28.6 | 51.3 | > 59 | > 51.1 | 59.8 | > 100 | 36.4 | > 100 | > 100 | 0.146 | 8.62 | 11 | 7.45 | 10.9 | 17.6 | 5.88 | 6.03 | 23.6 | 29.3 |
| O=C(CCc1cc(-c2ccc(F)cc2)n[nH]1)N(Cc1ccccc1)Cc1ccccc1 | > 100 | > 100 | > 100 | > 100 | > 100 | > 100 | > 100 | > 100 | > 100 | > 100 |  |  |  |  |  |  |  |  |  |  |
